Measured values as given in US20090030055A1, “PKC activation as a means for enhancing s[sequence] secretion and improving cognition using bryostatin type compounds” (priority 2002, published 2009).
Entries after “also recorded” stand apart in the source; their conditions may differ.

Legend:
[1] = humans; cited from earlier work
[2] = biological target: T1, PKC-α (Homo sapiens, UniProt P17252); test: Immunoblot assay for PKC translocation, α isoenzyme; format: cell-based
T1 construct: endogenous in cells; host or cells: human fibroblasts (AD patient and control lines)
Protocol: Immunoblot experiments were conducted using well-established procedures (Dunbar, 1994). Cells were grown to confluency (˜90%) in 6 cm Petri dishes. […] Fibroblasts were washed twice with ice-cold PBS, scraped in PBS, and collected by low-speed centrifugation. The pellets were re-suspended in the following homogenization buffer: 20 mM Tris-HCl, pH 7.5, 2 mM EDTA, 2 mM EGTA, 5 mM DTT, 0.32 M sucrose, and protease inhibitor cocktail (Sigma). […] The pellets were homogenized in the same buffer containing 1.0% Triton X-100, incubated in ice for 45 minutes, and centrifuged at ˜12,000 g for 20 minutes. The supernatant from this batch was used as the membranous fraction. After protein determination, 20 μg of protein were diluted in 2× electrophoresis sample buffer (Novex), boiled for 5 minutes, run on 10% acrylamide gel, and transferred electrophoretically to a PVDF membrane. The membrane was saturated with 5% milk blocker by incubating it at room temperature for an hour. The primary antibody for PKC isoform (Transduction Laboratories) was diluted (1:1000) in blocking solution and incubated with the membrane overnight at 4° C. […] The band intensities were quantified by densitometry using a BioRad GS-800 calibrated scanning densitometer and Multianalyst software (BioRad).

[3] = test system: sAPPα secretion, AD cell line AG06848; test: sAPPα secretion immunoblot, AD fibroblasts; format: cell-based, human; conditions: for secretion of sAPPα: AD cell line AG06848, three hours of treatment, relative to DMSO
Protocol: (§1) Cultured skin fibroblasts were obtained from the Coriell Cell Repositories and grown using the general guidelines established for their culture with slight modifications (Cristofalo & Carpentier, 1988; Hirashima et al., 1996). The culture medium in which cells were grown was Dulbecco's modified Eagle's medium (GIBCO) supplemented with 10% fetal calf serum (Biofluids, Inc.). Fibroblasts from control cell lines (AC), cases AG07141 and AG06241, and a familial AD (FAD) case (AG06848) were utilized.
(§2) Cells grown to confluence in 6 cm Petri dishes for 5-7 days. On the day of the experiment, medium was replaced with DMEM without serum and left undisturbed for 2 h. Upon completion of the 2 hour serum deprivation; treatment was achieved by direct application to the medium of Bryo, BL and DMSO at the appropriate concentrations. (0.1 and 0.01 nM for bryostatin; 0.1 nM, 0.1 μM, and 1 μM BL). DMSO was less than 1% in all cases. In most cases, medium was collected and processed after 3 hours of treatment for sAPP secretion. Other time points were also used to establish a time course of secretion.
sAPP—Determinations/Measurements of sAPPα
The concentration of secreted APP was measured using conventional immunoblotting techniques, with minor modifications the protocol. Precipitated protein extracts from each dish/treatment were loaded to freshly prepared 10% acrylamide Tris-HCl minigels and separated by SDPAGE. The volume of sample loaded was corrected for total cell protein per dish. Proteins were then electrophoretically transferred to PVDF membranes. Membranes were saturated with 5% non-fat dry milk to block non-specific binding. Blocked membranes were incubated overnight at 4° C. with the commercially available antibody 6E10 (1:500), which recognizes sAPP-alpha in the conditioned medium (SENETEK). After washing, the membranes were incubated at room temperature with horseradish peroxidase conjugated anti-mouse IgG secondary antibody (Jackson's Laboratories). The signal was then detected using enhanced chemiluminescence followed by exposure of Hyperfilm ECL (Amersham). The band intensities were quantified by densitometry using a BioRad GS-800 calibrated scanning densitometer and Multianalyst software (BioRad).

[4] = test system: double transgenic mice carrying the V7171 mutation and a Presenilin-1 (PS1) mutation; test: Double transgenic mice (V7171 and Presenilin-1 mutation) treated with Bryostatin-1; format: in vivo; conditions: 40 μg/k.g. i.p. three times a week
Protocol: A second transgenic study using similar procedures/testing and protocol was performed using double transgenic mice carrying the V7171 mutation and a Presenilin-1 (PS1) mutation, which causes accelerated amyloid formation, with the following major differences. Approximately 40 mice including both treated and controls were utilized. Treatment began at approximately 3 weeks of age and consisted of treatments with 40 μg/k.g. i.p. three times a week using Bryostatin-1. Controls were given vehicle alone. The treatment continued for approximately seven months before the morbidity rate of the non-treated animals necessitated termination of the experiment (see FIG. 10).

[5] = test system: Wistar albino rats; test: Morris Water Maze; format: in vivo; conditions: for learning, escape latency from trial to trial: i.c.v. 1 μl/site of 2 μM, vs vehicle control
Excerpt: (See, for example, Hollister, L. E., 1990, Pharmacopsychiat., 23, (Suppl II) 33-36). The available animal models of memory loss and impaired learning involve measuring the ability of animals to remember a discrete event. These tests include the Morris Water Maze and the passive avoidance procedure. In the Morris Water Maze, animals are allowed to swim in a tank divided into four quadrants, only one of which has a safety platform beneath the water. The platform is removed and the animals are tested for how long they search the correct quadrant verse the incorrect quadrants. In the passive avoidance procedure the animal remembers the distinctive environment in which a mild electric shock is delivered and avoids it on a second occasion. A variant of the passive avoidance procedure makes use of a rodent's preference for dark enclosed environments over light open ones. Further discussion can be found in Crawley, J. N., 1981, Pharmacol. Biochem. Behav., 15, 695-699; Costall, B. et al., 1987, Neuropharmacol., 26, 195-200; Costall, B. et at, 1989, Pharmacol. Biochem. Behav., 32, 777-785; Barnes, J. M. et al., 1989, Br. J. Pharmacol., 98 (Suppl) 693P; Barnes, J. M. et al., 1990, Pharmacol. Biochem. Behav., 35, 955-962.
Wistar albino rats (n=20) weighing between 220-250 g were housed for one week with free access to food and water. Stainless steel cannulas were placed bilaterally in each rat, following previously described procedures (49). […] Subsequently, animals were assigned randomly to experimental and control groups. At least 24 h prior to treatment and training, all animals were pre-exposed to the MWM experimental situation by placing them in the water and allowed to swim for 120 s. The training followed standard procedures (49) and consisted of two trials per day for 4 consecutive days. […] The control group received the same volume of vehicle alone, on identical schedule. On the fifth day, the platform was removed and the retention test was conducted. Animals' movements and escape latencies were recorded with an automatic tracking system. […] Acquisition of memory was measured as time spent in the relevant quadrant (5th day). […] Bryostatin-1 is capable of being used at concentrations to improve cognition that are 300 to 300,000 times lower than the concentration used to treat tumors.

[6] = test system: sAPPα secretion, control cell lines AG07141 and AG06241; test: sAPPα secretion immunoblot, control fibroblasts; format: cell-based, human; conditions: two control cell lines pooled, 0.1 nM, compared to DMSO alone
Protocol: as §1
as §2, with “In most cases, medium was collected and processed after 3 hours of treatment for sAPP secretion. Other time points were also used to establish a time course of secretion.” left out
The concentration of secreted APP was measured using conventional immunoblotting techniques, with minor modifications the protocol. […] The signal was then detected using enhanced chemiluminescence followed by exposure of Hyperfilm ECL (Amersham). The band intensities were quantified by densitometry using a BioRad GS-800 calibrated scanning densitometer and Multianalyst software (BioRad).

[7] = test system: PKC; test: PKC affinity of bryostatin 1 and bryologs; format: binding; conditions: times more potent than bryostatin-1
Excerpt: Analogs of bryostatin, commonly referred to as bryologs, are one particular class of PKC activators that are suitable for use in the methods of the present invention. […] Structurally, they are all similar. While bryostatin-1 has two pyran rings and one 6-membered cyclic acetal, in most bryologs one of the pyrans of bryostatin-1 is replaced with a second 6-membered acetal ring. This modification […] the stability of bryologs, relative to bryostatin-1, for example, in both strong acid or base, but has little significance at physiological pH. Bryologs also have a lower molecular weight (ranging from about 600 to 755), as compared to bryostatin-1 (988), a property which facilitates transport across the blood-brain barrier.

[8] = test system: PKC; conditions: cited from earlier work
[9] = approximately seven months, vs vehicle

## CCC/C=C/C=C/C(=O)O[C@H]1/C(=C/C(=O)OC)C[C@H]2C[C@H]([C@@H](C)O)OC(=O)C[C@H](O)C[C@@H]3C[C@H](OC(C)=O)C(C)(C)[C@](O)(C[C@@H]4C/C(=C/C(=O)OC)C[C@H](/C=C/C(C)(C)[C@]1(O)O2)O4)O3 [Bryostatin 1]
[1]
  main adverse reaction: myalgia
  maximum dose, limited by myalgia: 40 mg/m2
[2]
  time of maximal PKC translocation (measure of activation): 30 min
[3]; 0.01 nM compared with 0.1 nM, 2 and 3 h of incubation
  sAPPα secretion, time-course: undistinguishable from the higher
[3]; 0.01 nM, only after 60 min of incubation
  sAPPα secretion, time-course: robust enhancement
[3]; 0.1 nM, 2 and 3 h compared with 60 min
  sAPPα secretion, time-course: did not substantially differ from 60 min incubation
[3]; 0.1 nM, 30 and 60 min
  sAPPα secretion, time-course: Progressive and proportional increases
[3]; 0.1 nM, 15 min incubation
  sAPPα secretion, time-course: marked increase
[3]; 0.1 nM, listed as Bryostatin
  secretion of sAPPα: dramatically enhanced
[3]; 0.1 nM, listed as bryostatin
  secretion of sAPPα: dramatic increase
[4]; approximately seven months, vs controls
  percent plaque load, Thioflavin S staining: decrease in percent plaque load
[4]; [9]
  behavioural differences, water testing: not significant
  total APP: overall lower amount; also recorded: noticeable change
[4]; vs controls, listed as Bryostatin
  life span, life percentage over time: increase in life span
[4]; vs controls, listed as Bryostatin-1
  life span, life percentage over time: greater life percentage over time
[5]; i.c.v.
  time to improved cognition over control rats: ≤ 2 days
[5]; listed as bryostatin
  learning, escape latency from trial to trial: significantly faster
[5]; listed as bryostatin 1
  learning, escape latency from trial to trial: significantly lower
[5]; i.c.v., 5th day, platform removed, vs controls
  memory or retention, time spent in the relevant quadrant: significantly enhanced
[6]; listed as Bryostatin
  secretion of sAPPα: effective in enhancing secretion
[6]; listed as bryostatin
  secretion of sAPPα: enhanced the secretion of sAPPα

## CCCCCCCC(=O)O[C@H]1/C(=C/C(=O)OC)C[C@H]2C[C@H](CO)OC(=O)C[C@H](O)C[C@@H]3CCC[C@H](C[C@@H]4CCO[C@H](/C=C/C(C)(C)[C@]1(O)O2)O4)O3 [Analog 1]
[7]
  potency relative to bryostatin-1: about 100 times
[8]
  affinity for PKC, in words: highest affinity
[8]; read-out: PKC Affin
  Ki: 250 pM
